Test: 14-day repeated dermal dose toxicity study
Set-up: species or system Rats
Conditions: rat, in vivo, topical or ocular; 14-day dermal

In the case of CCN(CC)CCOC(=O)C(C)c1ccc(CC(C)C)cc1 (stereo not shown) [2-(diethylamino)ethyl 2-(4-isobutylphenyl)propionate], the NOAEL at 14 days was 250 mg/kg/day.

Reference: patent US20240024273A1, “TOPICAL ADMINISTRATION OF 2-(DIETHYLAMINO)ETHYL 2-(4-ISOBUTYLPHENYL)PROPRIONATE FOR TREATMENT OF DISEASES” (TECHFIELDS PHARMA CO., LTD., priority 2020, published 2024)
